Results on ten compounds are retold here after PubChem BioAssay (NCI).

Among the test systems are SN12C renal; KM12 colon; COLO 205 colon; SNB-75 CNS; OVCAR-4 ovarian; SF-295 CNS; UACC-257 melanoma; SF-539 CNS; SK-MEL-28 melanoma; HCC-2998 colon.
Common to all, as to experiment: DTP human tumour cell line panel, 48 h

Broadly, the TGI is the concentration giving total growth inhibition. What is called GI50 is the concentration at which growth is held to half of that of the control.

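96-well plates; 48 h exposure; 5 concentrations. Endpoints by linear interpolation between flanking doses. Not reached: highest tested concentration assigned. GI50 marks 50% less growth. TGI marks complete inhibition of growth.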

Consider `O=c1[nH]c2cc([N+](=O)[O-])ccc2nc1/C(=N\Nc1ccccc1)C(O)c1ccc2c(c1)OCO2` (configuration not stated), for which the concentration for total growth inhibition (TGI) with SN12C renal, in the test on KM12 colon, in the test on COLO 205 colon, in the test with SNB-75 CNS, in the test on OVCAR-4 ovarian and in the test on SF-295 CNS was above 100 µM each time. Besides, the TGI with UACC-257 melanoma, in the test on SF-539 CNS, in the test on SK-MEL-28 melanoma and in the test with HCC-2998 colon was above 100 µM in each case.
In the case of `CCOC(OC1=C(C#N)CCCC1)C(CC)[Se]c1ccccc1` (configuration not stated), the concentration for total growth inhibition (TGI) with SN12C renal is 36.9 µM; in the test with KM12 colon, above 100 µM; in the test with COLO 205 colon it was 40.6 µM; in the test with SNB-75 CNS it was 80.7 µM; in the test with OVCAR-4 ovarian it was 43.2 µM; with SF-295 CNS, 98.7 µM. For the same compound, the TGI in the test with UACC-257 melanoma is above 100 µM; in the test with SF-539 CNS it was 31.7 µM; in the test with SK-MEL-28 melanoma, 61.8 µM; in the test on HCC-2998 colon it was above 100 µM.
As to `COc1ccc(C(=O)c2nc3ccccc3n2CC(=O)c2ccc(Cl)cc2)cc1`, the GI50 in the test with SN12C renal was 9.72 µM; in the test with KM12 colon, 1.59 µM; in the test on COLO 205 colon it was 11.3 µM; in the test with SNB-75 CNS, 2.75 µM; with OVCAR-4 ovarian, 5.02 µM; in the test on SF-295 CNS it was 2.5 µM. The GI50 is above 23.6 µM in the test with UACC-257 melanoma, 2.85 µM in the test on SF-539 CNS, 3.02 µM with SK-MEL-28 melanoma and 3.94 µM in the test on HCC-2998 colon. The TGI with SN12C renal was above 100 µM; in the test with KM12 colon, above 100 µM; in the test with COLO 205 colon, above 83.7 µM; with SNB-75 CNS it was above 100 µM; with OVCAR-4 ovarian it was above 100 µM; in the test with SF-295 CNS, above 100 µM. The TGI was above 100 µM with UACC-257 melanoma, above 30.5 µM in the test on SF-539 CNS, above 100 µM in the test on SK-MEL-28 melanoma and above 100 µM in the test with HCC-2998 colon.
For `C=CC1=C(C)C2=NC1=CC1=NC(=CC3=C(C)C4=C(O)[C@H](C(=O)OC)C(=C5NC(=C2)[C@@H](C)[C@@H]5CCC(=O)O)C4=N3)C(CC)=C1C`, the TGI in the test on SN12C renal was above 100 µM; in the test on KM12 colon, above 20.5 µM; in the test with COLO 205 colon, 11.8 µM; with SNB-75 CNS it was 8.25 µM; in the test on OVCAR-4 ovarian it was 22 µM; with SF-295 CNS, 6.01 µM. In addition, the TGI turned out to be 42.7 µM in the test with UACC-257 melanoma, 4.63 µM with SF-539 CNS, 3.54 µM in the test on SK-MEL-28 melanoma and 4.23 µM with HCC-2998 colon.
Turning to `COC(=O)c1ccc2c(c1)C(=O)c1c-2n(CCCN=[N+]=[N-])c(=O)c2cc([N+](=O)[O-])ccc12`, the GI50 in the test with SN12C renal is above 100 µM; in the test on KM12 colon, above 100 µM; with COLO 205 colon it was above 100 µM; with SNB-75 CNS, 20.5 µM; with OVCAR-4 ovarian it was above 100 µM; in the test with SF-295 CNS, 59.8 µM. The GI50 with UACC-257 melanoma was above 100 µM; in the test on SF-539 CNS, 53.1 µM; in the test with SK-MEL-28 melanoma, above 100 µM; in the test with HCC-2998 colon, above 100 µM. Further, the TGI in the test on SN12C renal is above 100 µM; with KM12 colon it was above 100 µM; in the test with COLO 205 colon, above 100 µM; in the test with SNB-75 CNS, 40.8 µM; with OVCAR-4 ovarian it was above 100 µM; in the test with SF-295 CNS it was above 100 µM. The concentration for total growth inhibition (TGI) in the test with UACC-257 melanoma, with SF-539 CNS, in the test with SK-MEL-28 melanoma and in the test with HCC-2998 colon was above 100 µM throughout.
For `CSc1ccc(N(C)c2nc(C)nc3c2CCC3)cc1`, the GI50 with SN12C renal, with KM12 colon, with COLO 205 colon, with SNB-75 CNS, in the test with OVCAR-4 ovarian and in the test with SF-295 CNS was below 0.01 µM in each case. The GI50 in the test with UACC-257 melanoma is 11.6 µM; in the test on SF-539 CNS, below 0.01 µM; in the test on SK-MEL-28 melanoma, 1.38 µM; with HCC-2998 colon it was below 0.01 µM. Moreover, the total growth inhibition concentration (TGI) with SN12C renal is above 100 µM; in the test on KM12 colon, 12.9 µM; in the test with COLO 205 colon it was below 0.01 µM; with SNB-75 CNS, 42.1 µM; in the test with OVCAR-4 ovarian, above 100 µM; with SF-295 CNS, 12.2 µM. In addition, the TGI was 48.4 µM in the test on UACC-257 melanoma, below 0.01 µM in the test with SF-539 CNS, 36.6 µM with SK-MEL-28 melanoma and 10.8 µM with HCC-2998 colon.
For the compound `C/C1=C\CC[C@@](C)(O)[C@@H]2C[C@H](CC/C(C)=C/CC1)C1(CC1)C(=O)O2`, the GI50 is 21.5 µM with SN12C renal; 25.4 µM in the test on KM12 colon; 15.6 µM in the test with COLO 205 colon; 30.8 µM with SNB-75 CNS; 26.3 µM in the test with OVCAR-4 ovarian; 26.7 µM in the test with SF-295 CNS. In addition, the GI50 is 77.8 µM with UACC-257 melanoma, 49.4 µM with SF-539 CNS, 18 µM with SK-MEL-28 melanoma and 30.4 µM in the test on HCC-2998 colon. The TGI was 56.2 µM in the test on SN12C renal; 68.5 µM in the test with KM12 colon; 36.4 µM with COLO 205 colon; above 100 µM in the test with SNB-75 CNS; above 100 µM with OVCAR-4 ovarian; 85.6 µM in the test on SF-295 CNS. Also, the TGI in the test with UACC-257 melanoma was above 100 µM; with SF-539 CNS, above 100 µM; in the test with SK-MEL-28 melanoma it was 41.3 µM; with HCC-2998 colon it was 66.6 µM.
On to `Cc1ccccc1/C=C/C(=O)c1ccccc1`, for which the TGI in the test with SN12C renal is above 10 µM; in the test on KM12 colon it was 48.6 µM; in the test with COLO 205 colon, 46.7 µM; in the test with SNB-75 CNS, 34.6 µM; with OVCAR-4 ovarian, 33.2 µM; in the test on UACC-257 melanoma, 42.4 µM. The TGI in the test on SF-539 CNS was determined as 28.7 µM; in the test on SK-MEL-28 melanoma, 33.9 µM; in the test on HCC-2998 colon it was 34.5 µM.
Consider `N#CC(C#N)=c1c2nsnc2c(=C(C#N)C#N)c2nsnc12`, for which the total growth inhibition concentration (TGI) in the test on KM12 colon is 3.85 µM; in the test on COLO 205 colon, 4.83 µM; with SNB-75 CNS, 3.01 µM; in the test with OVCAR-4 ovarian, 3.83 µM; with SF-295 CNS it was 3.33 µM; with UACC-257 melanoma, 3.53 µM. Besides, the TGI was 3.46 µM in the test on SF-539 CNS, 3.3 µM in the test with SK-MEL-28 melanoma and 3.25 µM in the test on HCC-2998 colon.
As to `CC(C)(C)OC(=O)NC1CCCC1=O` (configuration not stated), the TGI with SN12C renal, in the test with KM12 colon, in the test on SNB-75 CNS, in the test with OVCAR-4 ovarian, in the test on SF-295 CNS and in the test on UACC-257 melanoma was above 100 µM throughout. Moreover, the TGI in the test with SF-539 CNS, with SK-MEL-28 melanoma and in the test on HCC-2998 colon was above 100 µM in each case.
